Tests used:
Type in all cases: cell-based
[1] = tested on: Rhizomucor miehei; experiment: Antifungal activity in vitro, resazurin growth inhibition: Rhizomucor miehei (IHEM13391)
Protocol: (§1) The standard susceptibility screen is performed in 96-well plates (U-bottom, Greiner Bio-One). Serial dilutions (2-fold or 4-fold) of 20 mM compound stock solutions are made in 100% DMSO, followed by an intermediate dilution step in water. These serial dilutions (10 μl) are then spotted onto test-plates that can be stored in the dark at 4° C. for a maximum period of 2 weeks. An adequate broad dose-range is included with 64 μM as the highest in-test concentration. The culture medium RPMI-1640 is supplemented with L-glutamine, 2% glucose and buffered with 3-(N-morpholino)-propanesulfonic acid (MOPS) at pH 7.0±0.1.
(§2) The different fungal species/isolates (Table 3a) are cryopreserved and 1/1000 diluted in medium just prior to use. A standard inoculum of 200 μl containing 10^3 colony-forming unit (cfu) is then added to each well. A positive control (100% growth=fungal culture without antifungal) and a negative control (0% growth ═RPMI-MOPS medium) are included on each plate. Optimal incubation time and temperature are dependent on the fungal species and vary from 24 h for yeasts (37° C.) to one week or more for dermatophytes (27° C.). Inhibition of fungal growth is measured after adding 10 μl of 0.005% (w/v) resazurin (Sigma Aldrich) to each well, based on the principle that living cells convert the non-fluorescent blue resazurin into the pink and fluorescent resorufin, allowing fluorimetric reading (λex 550 nm and λem 590 nm) after an additional incubation period (‘resa’ time mentioned in Table 3a).

[2] = tested on: Trichophyton mentagrophytes; experiment: Antifungal activity in vitro, resazurin growth inhibition: Trichophyton mentagrophytes (B70554)
Procedure, shortened: (§3)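 Dermatophytes incubated at 27° C. for one week or more with compound, max 64 μM, in RPMI-1640/MOPS pH 7.0±0.1, 10^3 cfu/well. Viability by resazurin-to-resorufin fluorescence, 550/590 nm.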

[3] = tested on: Trichophyton rubrum; experiment: Antifungal activity in vitro, resazurin growth inhibition: Trichophyton rubrum (B68183)
Procedure, shortened: as §3

[4] = tested on: Scedosporium prolificans; experiment: Antifungal activity in vitro, resazurin growth inhibition: Scedosporium prolificans (IHEM21157)
Protocol: as §1, §2

[5] = tested on: Scedosporium apiospermum; experiment: Antifungal activity in vitro, resazurin growth inhibition: Scedosporium apiospermum (IHEM3817)
Protocol: as §1, §2

[6] = tested on: Microsporum canis; experiment: Antifungal activity in vitro, resazurin growth inhibition: Microsporum canis (B68128)
Procedure, shortened: as §3

[7] = tested on: Sporothrix schenkii; experiment: Antifungal activity in vitro, resazurin growth inhibition: Sporothrix schenkii (B62482)
Procedure, shortened: (§4)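 Compound dilutions, with 64 μM as the highest in-test level, are spotted onto plates, then an inoculum of 10^3 cfu in RPMI-1640 plus 2% glucose (MOPS, pH 7.0±0.1) is added. Plates are incubated at species-dependent time and temperature, up to a week or more at 27° C. for dermatophytes.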

[8] = tested on: Rhizopus oryzae; experiment: Antifungal activity in vitro, resazurin growth inhibition: Rhizopus oryzae (IHEM5223)
Protocol: as §1, §2

[9] = tested on: Aspergillus fumigatus; experiment: Antifungal activity in vitro, resazurin growth inhibition: Aspergillus fumigatus (B42928)
Procedure, shortened: as §4

[10] = tested on: Candida parapsilosis; experiment: Antifungal activity in vitro, resazurin growth inhibition: Candida parapsilosis (B66126)
Procedure, shortened: as §4

[11] = tested on: Cryptococcus neoformans; experiment: Antifungal activity in vitro, resazurin growth inhibition: Cryptococcus neoformans (B66663)
Procedure, shortened: as §4

Structure (SMILES) | Inf. K: Rhizomucor miehei IHEM13391, pIC50 [1] | Inf. G: Trichophyton mentagrophytes B70554, pIC50 [2] | Inf. C: Trichophyton rubrum B68183, pIC50 [3] | Inf. I: Scedosporium prolificans IHEM21157, pIC50 [4] | Inf. H: Scedosporium apiospermum IHEM3817, pIC50 [5] | Inf. B: Microsporum canis B68128, pIC50 [6] | Inf. A: Sporothrix schenkii B62482, pIC50 [7] | Inf. J: Rhizopus oryzae IHEM5223, pIC50 [8] | Inf. E: Aspergillus fumigatus B42928, pIC50 [9] | Inf. D: Candida parapsilosis B66126, pIC50 [10] | Inf. F: Cryptococcus neoformans B66663, pIC50 [11] | further results
Clc1ccc(C2=NCc3c(Cl)cccc3-n3cccc32)cn1 [Compound 77] | <4.19 | 5.71 | 6.22 | 5.57 | 4.88 | 5.67 | 4.52 | <4.19 | 6.05 | 4.69 | 5.03 | 
Cc1cccc2c1-n1cccc1C(c1cc3ccccc3s1)NC2.Cl (racemic) [Compound 55] | <4.19 | 5.72 | 6.30 | 5.47 | 4.86 | 5.70 | 5.04 | <4.19 | 5.55 | <4.19 | 5.32 | 
c1ccc2c(c1)CN=C(c1cc3ccccc3s1)c1cccn1-2 [Compound 163] | 5.06 | 5.99 | 6.71 | 6.27 | 5.63 | 6.14 | 5.59 | 4.98 | 5.61 | 5.12 | 6.51 | 
Cc1cccc2c1CN=C(c1cc3ccccc3s1)c1cccn1-2 [Compound 2] |  |  |  |  |  |  |  |  |  |  |  | IC50 ([1]; read-out: Inf. K: Rhizomucor miehei IHEM13391, pIC50 (converted)): > 64600 nM; IC50 ([2]; read-out: Inf. G: Trichophyton mentagrophytes B70554, pIC50 (converted)): 427 nM; IC50 ([3]; read-out: Inf. C: Trichophyton rubrum B68183, pIC50 (converted)): 166 nM; IC50 ([4]; Lomentospora prolificans, read-out: Inf. I: Scedosporium prolificans IHEM21157, pIC50 (converted)): 1620 nM; IC50 ([5]; read-out: Inf. H: Scedosporium apiospermum IHEM3817, pIC50 (converted)): 525 nM; IC50 ([6]; read-out: Inf. B: Microsporum canis B68128, pIC50 (converted)): 331 nM; IC50 ([7]; read-out: Inf. A: Sporothrix schenkii B62482, pIC50 (converted)): 646 nM; IC50 ([8]; Rhizopus arrhizus, read-out: Inf. J: Rhizopus oryzae IHEM5223, pIC50 (converted)): > 64600 nM; IC50 ([9]; read-out: Inf. E: Aspergillus fumigatus B42928, pIC50 (converted)): 2000 nM; IC50 ([10]; Lodderomyces parapsilosis, read-out: Inf. D: Candida parapsilosis B66126, pIC50 (converted)): > 64600 nM; IC50 ([11]; read-out: Inf. F: Cryptococcus neoformans B66663, pIC50 (converted)): 2000 nM
Cc1cccc2c1CNC(c1cc3cc(Cl)ccc3o1)c1cccn1-2.Cl (racemic) [Compound 34] | <4.19 | 6.22 | 6.72 | 5.66 | <4.19 | 6.40 | <4.19 | <4.19 | <4.19 | <4.19 | <4.19 | 

Now from value to molecule, other results behind:

Inf. K: Rhizomucor miehei IHEM13391, pIC50 [1] | Inf. G: Trichophyton mentagrophytes B70554, pIC50 [2] | Inf. C: Trichophyton rubrum B68183, pIC50 [3] | Inf. I: Scedosporium prolificans IHEM21157, pIC50 [4] | Inf. H: Scedosporium apiospermum IHEM3817, pIC50 [5] | Inf. B: Microsporum canis B68128, pIC50 [6] | Inf. A: Sporothrix schenkii B62482, pIC50 [7] | Inf. J: Rhizopus oryzae IHEM5223, pIC50 [8] | Inf. E: Aspergillus fumigatus B42928, pIC50 [9] | Inf. D: Candida parapsilosis B66126, pIC50 [10] | Inf. F: Cryptococcus neoformans B66663, pIC50 [11] | Structure (SMILES) | further results
<4.19 | 5.81 | 6.31 | 5.52 | 4.19 | 6.16 | 4.86 | <4.19 | 5.99 | <4.19 | 5.52 | Clc1cc(Cl)c2c(c1)-n1cccc1C(c1cc3ccccc3o1)=NC2 [Compound 120] | 
5.08 | 6.51 | 6.41 | 4.54 | 5.08 | 6.54 | 5.70 | <4.19 | 6.30 | 5.71 | 6.41 | Clc1ccc2c(c1)-n1cccc1C(c1ccc3sccc3c1)=NC2 [Compound 173] | 
<4.19 | 6.60 | 6.81 | 4.81 | 5.44 | 6.73 | 4.63 | <4.19 | 6.28 | 5.61 | 5.86 | CC(F)(F)c1ccc(C2=NCc3c(Cl)cc(F)cc3-n3cccc32)cn1 [Compound 85] | 
<4.19 | 6.57 | 6.90 | 6.15 | 5.54 | 6.89 | 5.70 | <4.19 | 6.49 | 6.03 | 6.49 | Fc1cc(F)c2c(c1)-n1cccc1C(c1ccc3sccc3c1)=NC2 [Compound 176] | 
4.35 | 6.06 | 6.34 | 5.40 | 4.78 | 5.95 | 5.15 | <4.19 | 5.63 | <4.19 | 5.69 | Clc1cccc2c1-n1cccc1C(c1ccc3ncsc3c1)=NC2 [Compound 186] | 
<4.19 | 5.55 | 5.72 | 6.05 | 5.31 | 5.85 | 4.91 | <4.19 | 5.70 | <4.19 | 5.69 | Fc1ccc2oc(C3=NCc4c(Cl)cc(Cl)cc4-n4cccc43)cc2c1 [Compound 125] | 

— patent US9493468B2, “Antifungal 5,6-dihydro-4H-pyrrolo[1,2-a][1,4]benzo-diazepines and 6H-pyrrolo[1,2-a][1,4]benzodiazepines substituted with heterocyclic derivatives” (Janssen Pharmaceutica NV, priority 2011, dated 2016)
